# Test results reported in patent US20180325914A1, “INCREASING STORAGE OF VITAMIN A, VITAMIN D AND/OR LIPIDS” (Salk Institute for Biological Studies, priority 2014, published 2018).
# Test system: primary HSCs
smiles,measurement,setting,value
"Cc1sc2c(c1C)C(c1ccc(Cl)cc1)=N[C@@H](CC(=O)OC(C)(C)C)c1nnc(C)n1-2 [JQ1, (S)-tert-butyl 2-(4-(4-chlorophenyl)-2,3,9-trimethyl-6H-thieno[3,2-f][1,2,4]triazolo[4,3-a][1,4]diazepin-6-yl)acetate]",Stk39 value_2,Day_6_JQ1,17.0092
same,Sulf1 value_2,Day_6_JQ1,53.8118
same,Tbxa2r value_2,Day_6_JQ1,1.603
same,Tcea3 value_2,Day_6_JQ1,1.947
same,Tead3 value_2,Day_6_JQ1,19.5802
same,Thbs3 value_2,Day_6_JQ1,1.4249
same,Timp1 value_2,Day_6_JQ1,296.521
same,Tlcd2 value_2,Day_6_JQ1,7.717
same,Tm7sf3 value_2,Day_6_JQ1,17.8846
same,Tmem14a value_2,Day_6_JQ1,2.145
same,Tmem38a value_2,Day_6_JQ1,9.934
same,Tmem45a value_2,Day_6_JQ1,21.4757
same,Tmem119 value_2,Day_6_JQ1,38.7358
same,Tpm1 value_2,Day_6_JQ1,1441.58
same,Trf value_2,Day_6_JQ1,73.4499
same,Trim46 value_2,Day_6_JQ1,1.758
same,Trnp1 value_2,Day_6_JQ1,13.5695
same,Tsku value_2,Day_6_JQ1,19.2147
same,Tspan2 value_2,Day_6_JQ1,2.762
same,Tspan6 value_2,Day_6_JQ1,21.2613
same,Ttc13 value_2,Day_6_JQ1,20.1057
same,Tubb2b value_2,Day_6_JQ1,18.8633
same,Tubb4 value_2,Day_6_JQ1,12.0841
same,Txndc5 value_2,Day_6_JQ1,194.663
same,Ube2c value_2,Day_6_JQ1,30.6226
same,Unc119 value_2,Day_6_JQ1,15.3231
same,Vash2 value_2,Day_6_JQ1,1.343
same,Vegfa value_2,Day_6_JQ1,27.576
same,Wee1 value_2,Day_6_JQ1,8.031
same,Wfs1 value_2,Day_6_JQ1,22.9762
same,Whrn value_2,Day_6_JQ1,4.993
same,Wnt4 value_2,Day_6_JQ1,18.5297
same,Wnt5a value_2,Day_6_JQ1,7.524
same,Wnt9a value_2,Day_6_JQ1,7.671
same,Ydjc value_2,Day_6_JQ1,1.905
same,Zbtb8b value_2,Day_6_JQ1,2.023
same,Zyx value_2,Day_6_JQ1,185.005
same,1190002N15Rik value_2,"gene 1190002N15Rik, mRNA-Seq, sample Day_6_JQ1",132.567
same,Aard value_2,"gene Aard, mRNA-Seq, sample Day_6_JQ1",83.973
same,Abat value_2,"gene Abat, mRNA-Seq, sample Day_6_JQ1",35.0761
same,Adamts5 value_2,"gene Adamts5, mRNA-Seq, sample Day_6_JQ1",91.9646
same,Aldh1a1 value_2,"gene Aldh1a1, mRNA-Seq, sample Day_6_JQ1",311.654
same,Arxes2 value_2,"gene Arxes2, mRNA-Seq, sample Day_6_JQ1",27.1896
same,Asf1b value_2,"gene Asf1b, mRNA-Seq, sample Day_6_JQ1",22.9334
same,Atoh8 value_2,"gene Atoh8, mRNA-Seq, sample Day_6_JQ1",73.1716
same,Barx1 value_2,"gene Barx1, mRNA-Seq, sample Day_6_JQ1",11.4288
same,Bcmo1 value_2,"gene Bcmo1, mRNA-Seq, sample Day_6_JQ1",159.902
same,Birc5 value_2,"gene Birc5, mRNA-Seq, sample Day_6_JQ1",50.4974
same,Bub1 value_2,"gene Bub1, mRNA-Seq, sample Day_6_JQ1",8.993
same,Casc4 value_2,"gene Casc4, mRNA-Seq, sample Day_6_JQ1",36.8307
same,Cd248 value_2,"gene Cd248, mRNA-Seq, sample Day_6_JQ1",118.878
same,Cdca5 value_2,"gene Cdca5, mRNA-Seq, sample Day_6_JQ1",10.0872
same,Cdon value_2,"gene Cdon, mRNA-Seq, sample Day_6_JQ1",16.8708
same,Cep55 value_2,"gene Cep55, mRNA-Seq, sample Day_6_JQ1",13.1668
same,Ckap2 value_2,"gene Ckap2, mRNA-Seq, sample Day_6_JQ1",33.1117
same,Clca1 value_2,"gene Clca1, mRNA-Seq, sample Day_6_JQ1",52.2679
same,Col14a1 value_2,"gene Col14a1, mRNA-Seq, sample Day_6_JQ1",181.433
same,Ddr1 value_2,"gene Ddr1, mRNA-Seq, sample Day_6_JQ1",106.289
same,Dzip1 value_2,"gene Dzip1, mRNA-Seq, sample Day_6_JQ1",31.5814
same,Efemp1 value_2,"gene Efemp1, mRNA-Seq, sample Day_6_JQ1",205.387
same,Egr1 value_2,"gene Egr1, mRNA-Seq, sample Day_6_JQ1",141.166
same,Emilin2 value_2,"gene Emilin2, mRNA-Seq, sample Day_6_JQ1",88.1199
same,Epha7 value_2,"gene Epha7, mRNA-Seq, sample Day_6_JQ1",11.3808
same,Fam117a value_2,"gene Fam117a, mRNA-Seq, sample Day_6_JQ1",15.5563
same,Fam123b value_2,"gene Fam123b, mRNA-Seq, sample Day_6_JQ1",9.43
same,Fam83d value_2,"gene Fam83d, mRNA-Seq, sample Day_6_JQ1",24.1741
same,Fbln1 value_2,"gene Fbln1, mRNA-Seq, sample Day_6_JQ1",13.4635
same,Fbln5 value_2,"gene Fbln5, mRNA-Seq, sample Day_6_JQ1",79.5082
same,Fgfr2 value_2,"gene Fgfr2, mRNA-Seq, sample Day_6_JQ1",86.0077
same,Fhl1 value_2,"gene Fhl1, mRNA-Seq, sample Day_6_JQ1",503.063
same,Figf value_2,"gene Figf, mRNA-Seq, sample Day_6_JQ1",27.0541
same,Gamt value_2,"gene Gamt, mRNA-Seq, sample Day_6_JQ1",12.8445
same,Gdf11 value_2,"gene Gdf11, mRNA-Seq, sample Day_6_JQ1",22.9531
same,Ghr value_2,"gene Ghr, mRNA-Seq, sample Day_6_JQ1",60.5749
same,H1fx value_2,"gene H1fx, mRNA-Seq, sample Day_6_JQ1",50.515
same,H2afx value_2,"gene H2afx, mRNA-Seq, sample Day_6_JQ1",155.278
same,H19 value_2,"gene H19, mRNA-Seq, sample Day_6_JQ1",82.2113
same,Hist1h1c value_2,"gene Hist1h1c, mRNA-Seq, sample Day_6_JQ1",246.293
same,Hmcn1 value_2,"gene Hmcn1, mRNA-Seq, sample Day_6_JQ1",13.3966
same,Hmgn3 value_2,"gene Hmgn3, mRNA-Seq, sample Day_6_JQ1",59.5606
same,Hspa2 value_2,"gene Hspa2, mRNA-Seq, sample Day_6_JQ1",19.5751
same,Igf2r value_2,"gene Igf2r, mRNA-Seq, sample Day_6_JQ1",67.7147
same,Igfbp6 value_2,"gene Igfbp6, mRNA-Seq, sample Day_6_JQ1",52.4488
same,Isyna1 value_2,"gene Isyna1, mRNA-Seq, sample Day_6_JQ1",113.425
same,Itga1 value_2,"gene Itga1, mRNA-Seq, sample Day_6_JQ1",101.182
same,Itm2a value_2,"gene Itm2a, mRNA-Seq, sample Day_6_JQ1",59.8717
same,Kif23 value_2,"gene Kif23, mRNA-Seq, sample Day_6_JQ1",11.9374
same,Kifc1 value_2,"gene Kifc1, mRNA-Seq, sample Day_6_JQ1",15.9311
same,Klhl13 value_2,"gene Klhl13, mRNA-Seq, sample Day_6_JQ1",100
same,Lama1 value_2,"gene Lama1, mRNA-Seq, sample Day_6_JQ1",16.8277
same,Lum value_2,"gene Lum, mRNA-Seq, sample Day_6_JQ1",485.984
same,Mad2l1 value_2,"gene Mad2l1, mRNA-Seq, sample Day_6_JQ1",31.9743
same,Mapk8ip1 value_2,"gene Mapk8ip1, mRNA-Seq, sample Day_6_JQ1",16.3375
same,Meis1 value_2,"gene Meis1, mRNA-Seq, sample Day_6_JQ1",24.7836
same,Mmp17 value_2,"gene Mmp17, mRNA-Seq, sample Day_6_JQ1",25.3895
same,Mxd4 value_2,"gene Mxd4, mRNA-Seq, sample Day_6_JQ1",76.146
same,Ncapd2 value_2,"gene Ncapd2, mRNA-Seq, sample Day_6_JQ1",18.5667
same,Ncapg2 value_2,"gene Ncapg2, mRNA-Seq, sample Day_6_JQ1",11.6063
same,Ncaph value_2,"gene Ncaph, mRNA-Seq, sample Day_6_JQ1",16.1078
same,Nek2 value_2,"gene Nek2, mRNA-Seq, sample Day_6_JQ1",11.522
same,Nusap1 value_2,"gene Nusap1, mRNA-Seq, sample Day_6_JQ1",10.0613
same,Pcsk6 value_2,"gene Pcsk6, mRNA-Seq, sample Day_6_JQ1",16.0741
same,Pcyox1 value_2,"gene Pcyox1, mRNA-Seq, sample Day_6_JQ1",135.704
same,Peg3 value_2,"gene Peg3, mRNA-Seq, sample Day_6_JQ1",37.0421
same,Peg10 value_2,"gene Peg10, mRNA-Seq, sample Day_6_JQ1",121.813
same,Pkia value_2,"gene Pkia, mRNA-Seq, sample Day_6_JQ1",28.0014
